# Measurements: US20200383327A1, “METHOD OF IMPROVING PLANT PERFORMANCE” (The State of Israel, Ministry of Agriculture & Rural …, priority 2018, published 2020)
# Assays:
# Type in all cases: in vivo
# Tetranychus urticae = assay: Red spider mite damage on tomato plants, natural infestation in greenhouse; conditions: 4 mM Phe solution, drench or spray, each treatment; AUDPC during 30 days; FIG. 9
# Procedure: (§1) FIG. 9 is a bar graph showing the effect of 4 mM Phe solution on the severity of Tetranychus urticae red spider mite on leaves of tomato plants. The Phe solution was applied by spraying and by drench on the tomato plants at 3 days before and 4 hours before incubation in the greenhouse. Symptoms severity was evaluated on a scale of 0-100% severity of symptoms coverage during 30 days after treatment and it is expressed as the area under disease progress curve (AUDPC).
# The red spider mite Tetranychus urticae Koch, (also two-spotted spider mite) occurred naturally on the treated tomato plants. The plants were kept in a greenhouse with 18-28° C. Typical scratching symptoms severity were evaluated on each plant; 0=no infection (all leaves are symptomless) and 100=leaves were fully covered by symptoms.
# Oidium neolycopersici = assay: Oidium powdery mildew on tomato plants; conditions: 24 days after treatment
# Procedure: The Phe (P) solution was applied by spraying and by drench on the tomato plants at 3 days before and 4 hours before incubation in the greenhouse. Incidence of Oidium powdery mildew was evaluated 24 days after treatment. […] The Phe and shatakh 90 solutions were applied by spraying on the tomato plants at 3 days before and 4 hours before incubation in the greenhouse. Incidence of Oidium powdery mildew was evaluated 24 days after treatment.
# Conidia of Oidium neolycopersici were collected from leaves of a diseased plant, suspended in water and sprayed on the tomato plants. The plants were kept in a greenhouse with 18-28° C. Disease severity of Oidium powdery mildew was evaluated on a scale of 0-100% where 100=whole canopy covered by disease symptoms.
# [1] = system: Tomato yellow leaf curl virus (TYLCV); assay: Tomato yellow leaf curl virus severity on tomato plants; conditions: 4 mM Phe solution, spray and drench to root zone; AUDPC during 51 days; FIG. 13
# Procedure: as §1, with “13” for “9”, “mM” for “mM Phe”, “Tomato yellow leaf curl virus (TYLCV)” for “Tetranychus urticae red spider mite”, “greenhouse close to TYLCV infected tomato plants. Infection was natural by the vector insect silverleaf white fly. Disease” for “greenhouse. Symptoms”, “51” for “30”
# The effect of Phe on TYLCV Begomovirus on tomato plants was assessed. Tomato yellow leaf curl virus (TYLCV) is a DNA virus from the genus Begomovirus. The virus is transmitted by an insect vector the whitefly Bemisia tabaci, (silverleaf whitefly; sweet potato whitefly from the family Aleyrodidae). Plants infected are tomato and also eggplant, potato, tobacco, bean, and pepper. Virus infection causes stunting, reduction of leaf size, upward cupping/curling of leaves, chlorosis on leaves and flowers, and reduction of fruit production.
# [2] = system: Colletotrichum gloeosporioides; assay: Postharvest decay of 'Shelly' mango fruit, wound inoculated; conditions: for Inhibition of pathogenic activity: postharvest, mango
# Procedure: (§2) FIGS. 4A-4B are graphs showing induced resistance of harvested Mango fruit to fungal pathogens. FIG. […] A day later the treated or untreated fruits were wound inoculated on four spots in each fruit with 7 μl of Lasiodiplodia theobromas conidia suspension (10^6 conidia/ml) and the decay area was monitored for 7 days post inoculation (dpi). FIG. […] A day later the treated or untreated fruits were wound inoculated on four spots in each fruit with 7 μl of Colletotrichum gloeosporioides conidia suspension (10^6 conidia/ml) and the decay area was monitored for 14 days post inoculation (dpi).
# Lasiodiplodia theobromae = assay: as above; conditions: for Inhibition of pathogenic activity: postharvest, mango
# Procedure: as §2
# Alternaria alternata = assay: Postharvest decay of 'Ettinger' avocado fruit, wound inoculated; conditions: 4 mM phenylalanine, FIG. 5
# Procedure: FIGS. 5A-5B are a graph and a photograph showing induced resistance of harvested Avocado fruit to fungal pathogens. FIG. […] A day after dipping the treated or untreated fruits were wound inoculated on four spots in each fruit with 7 μl of Alternaria alternata conidia suspension (10^6 conidia/ml) and the decay area was monitored for 6 days post inoculation (dpi). FIG. 5B is representative pictures of inoculated fruits of control and treatments with 4 mM phenylalanine, 6 days post inoculation.
# [3] = Plant growth performance parameters after pre-harvest treatment
# Procedure: FIGS. 20A-20I are images and graphs showing the effects of Phe solution on plant growth performance parameters. (20A) is images of plants treated with 2 mM once or twice, once with 4 mM or non-treated (control). (20B-20C) are bar graphs showing plant height (20B) and the % increase in the plant height (20C) in treated and control plants. (20D-20E) are bar graphs showing the number of nodes per plant (20D) and the % increase in the number of nodes (20E) in treated and control plants. (20F-20G) are bar graphs showing the % increase in leaf length (20F) and the % increase in the leaf area (20G) in treated and control plants. (20H-20I) are bar graphs showing plant fresh (e.g., “wet”) weight […] and plant dry weight (20I) in treated and control plants.
# Plant were treated with Phe solution pre-harvest, and growth performance parameters, including total height, total weight (“wet” and dry), number of nodes, leaf length, and leaf area were examined.
# Powdery Mildew = assay: Powdery mildew incidence per inflorescence in mango orchard sprayed during flowering; conditions: application during orchard flowering; FIG. 23A
# Description: (§3) FIGS. 23A-C: Effect of flowering application on disease incidence. Avocado and Mango cv. ‘Kent’ orchards were sprayed with fungicide (Pyrimethanil+Fludioxonil) or with phenylalanine during flowering. (FIG. 23A). Powdery Mildew incidence (percentage) per inflorescence in mango orchard. (FIG. 23B). Anthracnose incidence (percentage) on harvested mango stored at ambient temperature for 12 days. (FIG. 23CB). Anthracnose incidence (percentage) on harvested avocado stored at ambient temperature for 14 days.
# (§4) Flowering is one of the more susceptible organs of the tree. Pathogenic fungi can penetrate during flowering and either infect the flower (e.g., powdery mildew) or endophytically colonize the stem and the fruit without causing any visible symptoms. Those fungi (e.g. Colletotrichum and Lasiodiplodia) become active during abiotic stress or during fruit ripening and cause fruit stem-end rot and anthracnose.
# Anthracnose = Anthracnose incidence on harvested avocado after orchard flowering spray; conditions: application during orchard flowering; stored at ambient temperature for 14 days; FIG. 23
# Description: as §3, §4
# [4] = postharvest treatment of 'Shelly' mango, FIG. 4
compound,measurement,setting,value
"N[C@@H](Cc1ccccc1)C(=O)O [Phe, Phenylalanine]",Severity of damage of the Tetranychus urticae red spider mite on tomato leaves,Tetranychus urticae,significantly suppressed
same,Severity of Oidium powdery mildew on tomato leaves,"Oidium neolycopersici; 4 mM Phe solution, drench or spray, each treatment, FIG. 11A",significantly suppressed
same,Severity of Oidium powdery mildew on tomato leaves,"Oidium neolycopersici; spray, 4 mM Phe, 0.1% Shatah 90, or combination, FIG. 11B",significantly suppressed
same,Severity of Tomato yellow leaf curl virus on tomato plants canopy,[1],significantly suppressed
same,Inhibition of pathogenic activity,[2]; 2 mM phenylalanine,did not suffice
same,Inhibition of pathogenic activity,[2]; 4 mM phenylalanine,substantially inhibited the pathogenic activity
same,Decay severity in comparison to the untreated control fruits,[2]; [4],reduced the decay severity
same,Inhibition of pathogenic activity,Lasiodiplodia theobromae; 2 mM phenylalanine,did not suffice
same,Inhibition of pathogenic activity,Lasiodiplodia theobromae; 4 mM phenylalanine,substantially inhibited the pathogenic activity
same,Decay severity in comparison to the untreated control fruits,Lasiodiplodia theobromae; [4],reduced the decay severity
same,Decay severity in comparison to the untreated control fruits,Alternaria alternata,reduced the decay severity
same,Plant height,"[3]; 2 mM or 4 mM of Phe vs control, FIGS. 20A-20C",significantly higher than control
same,"Final weight at harvest, total ""wet"" weight","[3]; Phe treated vs control, FIG. 20H",significantly greater than control
same,"Final weight at harvest, total dry biomass","[3]; Phe treated vs control, FIG. 20I",significantly greater than control
same,Number of nodes on the plant's stem,"[3]; Phe treated vs control, FIGS. 20D-20E",increase in height was also correlated with the number of nodes
same,Leaf length,[3]; control compared to plants treated with 4 mM Phe,control plants had significantly shorter leaves
same,Leaf area,"[3]; control compared to plants treated with Phe, 2 mM or 4 mM once a week",reduced leaf area compared to those of plants treated with Phe
same,Mango powdery mildew,Powdery Mildew,reduced
same,Postharvest anthracnose in avocado,Anthracnose,reduced
